Patent US8691195B2, “Peptide having activity of transforming growth factor and production method therefor” (Caregen Co., Ltd., priority 2009, dated 2014)
Ends that are not written are not given here.

How the values were obtained:
[1] = Heat stability: residual activity by MTT assay after storage at 40° C.; type: physicochemical; details: days 0-100, MTT assay, FIG. 3
Protocol: To evaluate heat stability of the peptide 2 prepared in Example 1, the peptide 2 was dissolved in 50 mM Tris-HCl buffer (pH 8.0) to a concentration of 10 μg/ml. Recombinant TGF-β1 (Sigma) as control was produced from E. coli and dissolved in 50 mM Tris-HCl buffer (pH 8.0) at a concentration of 1 μg/ml. The prepared solutions were introduced into glass vials and kept to stand at 40° C. Afterwards, the solutions were taken on days 0, 1, 10, 25, 50, 75 and 100, and subjected to MTT assay (Scudiero, D. A., et al., Cancer Res., 48: 4827-4833 (1988)) to determine residual activities of the peptide and recombinant TGF-β1 (FIG. 3).

tyrosinase = assay: Tyrosinase activity in α-MSH-treated B16F10 cells (L-DOPA, absorbance at 405 nm); type: cell-based; details: 4 days, FIG. 6
Protocol: For verifying effects on skin whitening of the peptide synthesized in Example 1 and TGF-β, cells were treated with α-MSH and the inhibition in melanin generation was measured. B16F10 cells (Korean Cell Line Bank) were inoculated in a density of 1×10^5 cells/well and cultured in DMEM for 3 days. After cell adhesion was observed, medium was changed with a fresh medium containing 2% serum. Cells were incubated with each test group for 4 days: (a) no treatment as negative control; (b) 200 μg/ml α-MSH as a positive control; and (c) 200 μg/ml α-MSH plus 1 μg/ml or 10 μg/ml peptide 2. […] Subsequently, cells were harvested and treated with a lysis buffer to extract total proteins. The extracted proteins were quantitated by the BCA (bicinchonic acid) method. For each experiment group, 90 μl of protein solution and 10 μl of L-DOPA (L-3,4-dihydroxyphenylalanine; Sigma) were added and reacted for 30 min at 37° C. The resultants were analyzed to measure their absorbance values at 405 nm for evaluating tyrosinase activities.

B16F10 melanoma cells = assay: Melanosome changes / cell morphology in α-MSH-treated B16F10 melanoma cells; type: cell-based; details: 200 μg/ml α-MSH plus 10 μg/ml peptide, 4 days, FIG. 7
Protocol: (§1) First, B16F10 cells were plated at a 6-well plate in a density of 1×10^5 cells/well and cultured for 3 days. After cell adhesion was observed, medium was changed with a fresh medium containing 2% serum. Cells were incubated with each test group for 4 days: (a) no treatment as negative control; (b) 200 μg/ml α-MSH as a positive control; and (c) 200 μg/ml α-MSH plus 10 μg/ml peptide 2.

[2] = tested on: TRP1 (tyrosinase-related protein-1); assay: RT-PCR of TRP1 mRNA in α-MSH-treated B16F10 melanoma cells; type: cell-based; details: 200 μg/ml α-MSH plus 10 μg/ml peptide, 4 days, FIG. 8
Protocol: (§2) To more clearly check activities of TGF-mimicking peptide on skin whitening in α-MSH-treated B16F10 melanoma cells, mRNA level of TRP1 (tyrosinase-related protein-1), TRP2 and MITF (microphthalmia-associated transcription factor) was measured using RT-PCR.
as §1
(§3) Subsequently, mRNA were extracted from cells and RT-PCR was carried out using primers for TRP1, TRP2 and MITF. The primer sequence is as follows: TRP1 F-primer, 5′-[…]-3′ and TRP1 R-primer, 5′-[…]-3′; TRP2 F-primer, 5′-[…]-3′ and TRP2 R-primer, 5′-[…]-3′; and MITF F-primer, 5′-[…]-3′ and MITF R-primer, 5′-[…]-3′.

TRP2 = assay: RT-PCR of TRP2 mRNA in α-MSH-treated B16F10 melanoma cells; type: cell-based; details: 200 μg/ml α-MSH plus 10 μg/ml peptide, 4 days, FIG. 8
Protocol: as §2, §1, §3

[3] = tested on: MITF (microphthalmia-associated transcription factor); assay: RT-PCR of MITF mRNA in α-MSH-treated B16F10 melanoma cells; type: cell-based; details: 200 μg/ml α-MSH plus 10 μg/ml peptide, 4 days, FIG. 8
Protocol: as §2, §1, §3

procollagen = assay: Procollagen production in NIH3T3 fibroblasts (Procollagen ELISA kit); type: cell-based; details: NIH3T3, 1 μg/ml or 10 μg/ml, 72 hr, FIG. 9
Protocol: (§4) NIH3T3 cells cultured for 48 hr were incubated with the peptide of the present invention with a concentration of 1 μg/ml or 10 μg/ml for 72 hr, respectively. The levels of procollagen and fibronectin, indicators to show the improvement in skin wrinkle, were examined. The quantification was performed using Procollagen ELISA kit (Takara, Japan) and Fibronectin ELISA kit (CHEMICON, USA).

fibronectin = assay: Fibronectin production in NIH3T3 fibroblasts (Fibronectin ELISA kit); type: cell-based; details: NIH3T3, 1 μg/ml or 10 μg/ml, 72 hr, FIG. 10
Protocol: as §4

C57BL/6 Mice melanocytes = assay: Inhibition of melanin generation in α-MSH-treated melanocytes; type: cell-based; details: 200 μg/ml α-MSH alone (positive control), 3 days, FIG. 4
Protocol: To evaluate reduction of melanin pigment by the peptide 2 synthesized in Example 1, C57BL/6 Mice melanocytes cultured were incubated with α-MSH (melanocyte stimulating hormone; Sigma) and then with the peptide in the determined concentrations to measure inhibition effects on melanin generation. Mice melanocytes were cultured in DMEM (Dulbecco's modified Eagle's media; Sigma) supplemented with 10% FBS (fetal bovine serum; Sigma) at 37° C. under 5% CO2 conditions. Cells were cultured in a 24-well culture plate with a density of 1×10^5 cells/well and their adhesion to the plate was observed. Then, cells were incubated with each test group for 3 days: (a) a solvent as control; (b) 200 μg/ml α-MSH as a positive control; and (c) 200 μg/ml α-MSH plus 1 μg/ml or 10 μg/ml peptide 2. The test materials were prepared in such a manner that each component was dissolved in medium solvent and diluted at an equivalent rate to the aforementioned concentration using a mixed solvent of propylene glycol:ethanol:distilled water (5:3:2). After removing culture medium by centrifugation, melanin contents in each group could be observed with naked eye. […]
More specifically, cells were washed with PBS (phosphate buffered saline) and treated with 1 N sodium hydroxide. The resultants were analyzed to measure their absorbance values at 400 nm. […]

Substance: recombinant TGF-β1: Recombinant TGF-β1 (Sigma) produced from E. coli, used as control
- residual activity over time (heat stability) ([1]; 1 μg/ml in 50 mM Tris-HCl buffer (pH 8.0)): sharply decreased with the lapse of time

Substance: NH2-Gly-Arg-Gly-Asp-Tyr-Ile-Trp-Ser-Leu-Asp-Thr-Gln-OH (H-GRGDYIWSLDTQ-OH) [peptide 2]
- residual activity over time (heat stability) ([1]; 10 μg/ml in 50 mM Tris-HCl buffer (pH 8.0)): not to be decreased over time
- reduction of tyrosinase activity (tyrosinase; 200 μg/ml α-MSH plus 1 μg/ml or 10 μg/ml peptide, versus α-MSH only): about 30%
- α-MSH-induced melanosomes (B16F10 melanoma cells): eliminated
- mRNA level of TRP1 [2]: inhibit
- mRNA level of TRP2 (TRP2): inhibit
- mRNA level of MITF [3]: inhibit
- production of procollagen (procollagen): remarkably promote
- level of fibronectin (fibronectin): increase

Substance: α-MSH: melanocyte stimulating hormone (Sigma), inducer of melanin generation, positive control (SYSMEHFRWGKPV; ends and bridges not checked; UniProt P01189 138-150, looked up) [reference compound]
- melanin content (C57BL/6 Mice melanocytes): strikingly increased
- tyrosinase activity (tyrosinase; 200 μg/ml α-MSH only): highly elevated level
